Active and inactive are the calls of the source. For most assays here, no stated cut-off is given here; in the data, actives have a measured EC50 and inactives only a lower limit.
Key:
[1] = target: T1, RNA-binding protein pos-1 (Caenorhabditis elegans, UniProt G5EF15); test: inhibitors of POS-1/mex-3 RNA binding, dose response, biochemical, fluorescence polarization (AID 1964);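 further: purified POS-1 fused to maltose binding protein made in E. coli; potency of compounds blocking POS-1 binding to fluorescent RNA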
T1 sequence (G5EF15 whole entry): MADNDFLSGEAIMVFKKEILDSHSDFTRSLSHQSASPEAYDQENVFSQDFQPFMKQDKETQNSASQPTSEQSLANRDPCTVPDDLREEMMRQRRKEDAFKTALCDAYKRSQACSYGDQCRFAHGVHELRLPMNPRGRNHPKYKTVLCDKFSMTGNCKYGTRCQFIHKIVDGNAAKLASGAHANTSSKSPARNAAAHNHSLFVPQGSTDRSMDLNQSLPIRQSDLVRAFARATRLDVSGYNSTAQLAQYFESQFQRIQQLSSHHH

[2] = target: T2, Zinc finger protein mex-5 (Caenorhabditis elegans, UniProt Q9XUB2); test: MEX-5/TCR-2 RNA interaction inhibitors, dose response, biochemical, C. elegans, fluorescence polarization (AID 1960)
T2 sequence (Q9XUB2 whole entry): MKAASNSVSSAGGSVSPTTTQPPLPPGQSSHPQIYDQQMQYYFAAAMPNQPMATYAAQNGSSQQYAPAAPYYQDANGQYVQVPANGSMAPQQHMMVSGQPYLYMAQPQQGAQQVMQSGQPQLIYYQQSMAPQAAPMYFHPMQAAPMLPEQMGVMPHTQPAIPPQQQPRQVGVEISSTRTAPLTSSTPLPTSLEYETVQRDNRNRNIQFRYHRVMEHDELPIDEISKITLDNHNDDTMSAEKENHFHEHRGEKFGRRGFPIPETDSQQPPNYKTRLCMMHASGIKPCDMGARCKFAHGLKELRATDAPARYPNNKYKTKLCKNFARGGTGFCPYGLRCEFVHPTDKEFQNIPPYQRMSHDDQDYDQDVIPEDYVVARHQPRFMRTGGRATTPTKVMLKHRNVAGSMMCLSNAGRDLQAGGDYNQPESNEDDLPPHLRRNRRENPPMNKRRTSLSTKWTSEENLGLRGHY

[3] = target: T3, Heat shock factor protein 1 (Mus musculus, UniProt P38532); test: HSF1 potentiators in luciferase reporter cells, confirmation, cell-based, NIH3T3, luminescence, dose retest (AID 435004); assay type: functional;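 further: stress induced by proteasome inhibitor MG132 added 30 min after compound; luciferase reporter driven by HSF1 response element in NIH3T3 cells; actives raise luminescence as potentiators of the MG132 stress response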
T3 sequence (P38532 whole entry): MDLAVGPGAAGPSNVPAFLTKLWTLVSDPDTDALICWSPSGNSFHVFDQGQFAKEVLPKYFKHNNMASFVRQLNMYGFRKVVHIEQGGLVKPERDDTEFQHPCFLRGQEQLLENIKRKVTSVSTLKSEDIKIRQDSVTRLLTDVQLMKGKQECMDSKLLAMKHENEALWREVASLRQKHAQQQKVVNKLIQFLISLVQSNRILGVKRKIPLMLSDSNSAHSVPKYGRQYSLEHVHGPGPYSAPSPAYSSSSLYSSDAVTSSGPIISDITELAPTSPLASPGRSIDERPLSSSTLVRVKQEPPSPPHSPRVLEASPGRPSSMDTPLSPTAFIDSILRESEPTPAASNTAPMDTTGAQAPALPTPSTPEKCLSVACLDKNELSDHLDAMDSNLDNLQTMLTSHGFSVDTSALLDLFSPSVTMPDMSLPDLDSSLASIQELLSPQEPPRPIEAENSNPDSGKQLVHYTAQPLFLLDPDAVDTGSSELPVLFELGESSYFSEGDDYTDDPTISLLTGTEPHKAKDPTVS

[4] = inhibitors of firefly luciferase expression or activity, dose response, H4 neuroglioma cells, luminescence (AID 1990); assay type: functional, cell-based
[5] = Luminescence Cell-Based Dose Response HTS to Identify Inhibitors of 5'UTR Stem-Loop Driven Prion Protein mRNA Translation in H4 Neuroglioblastoma Cells. [Related pubchem assays: 1827 (Project Summary), 1813 (Primary HTS)]; assay type: functional
[6] = inhibitors of SNCA 5'UTR-driven reporter translation, confirmation, H4 neuroglioma cells, luminescence (AID 1988); assay type: functional, cell-based
[7] = target: T4, Corticotropin-releasing factor receptor 2/Corticotropin-releasing factor-binding protein (Homo sapiens, UniProt P24387+Q13324); test: Dose Response confirmation of uHTS hits for small molecule antagonists of the CRF-binding protein and CRF-R2 receptor complex.; assay type: functional; details: read-out: IC50_Mean
T4 sequence (Q13324 whole entry): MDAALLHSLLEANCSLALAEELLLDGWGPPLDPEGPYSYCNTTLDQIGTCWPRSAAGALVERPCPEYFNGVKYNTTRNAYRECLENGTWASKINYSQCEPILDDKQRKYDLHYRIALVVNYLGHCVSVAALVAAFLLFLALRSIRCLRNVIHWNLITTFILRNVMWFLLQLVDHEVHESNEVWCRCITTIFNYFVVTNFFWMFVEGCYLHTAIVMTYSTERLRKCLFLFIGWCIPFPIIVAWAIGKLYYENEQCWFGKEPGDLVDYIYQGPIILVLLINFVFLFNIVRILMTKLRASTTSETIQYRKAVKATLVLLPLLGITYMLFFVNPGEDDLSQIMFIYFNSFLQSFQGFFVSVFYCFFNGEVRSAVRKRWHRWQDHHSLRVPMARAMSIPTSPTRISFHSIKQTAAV
T4 sequence (P24387 whole entry): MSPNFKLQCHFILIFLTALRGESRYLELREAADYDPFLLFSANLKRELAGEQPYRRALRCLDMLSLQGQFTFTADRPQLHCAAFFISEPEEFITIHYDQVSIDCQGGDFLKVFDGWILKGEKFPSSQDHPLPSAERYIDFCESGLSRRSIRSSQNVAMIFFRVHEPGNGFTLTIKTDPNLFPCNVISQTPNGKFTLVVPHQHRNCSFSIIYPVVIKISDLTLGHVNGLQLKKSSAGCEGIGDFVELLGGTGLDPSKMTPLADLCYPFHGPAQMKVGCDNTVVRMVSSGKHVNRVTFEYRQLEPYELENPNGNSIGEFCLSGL

[8] = target: T4, Corticotropin-releasing factor receptor 2/Corticotropin-releasing factor-binding protein; test: activators of CRF receptor 2 with binding protein – uHTS hits, confirmation (AID 602473); assay type: functional; details: read-out: EC50_Mean
Protein skinhead-1 = target: T5, Protein skinhead-1 (Caenorhabditis elegans, UniProt P34707); assay type: functional
T5 sequence (P34707 whole entry): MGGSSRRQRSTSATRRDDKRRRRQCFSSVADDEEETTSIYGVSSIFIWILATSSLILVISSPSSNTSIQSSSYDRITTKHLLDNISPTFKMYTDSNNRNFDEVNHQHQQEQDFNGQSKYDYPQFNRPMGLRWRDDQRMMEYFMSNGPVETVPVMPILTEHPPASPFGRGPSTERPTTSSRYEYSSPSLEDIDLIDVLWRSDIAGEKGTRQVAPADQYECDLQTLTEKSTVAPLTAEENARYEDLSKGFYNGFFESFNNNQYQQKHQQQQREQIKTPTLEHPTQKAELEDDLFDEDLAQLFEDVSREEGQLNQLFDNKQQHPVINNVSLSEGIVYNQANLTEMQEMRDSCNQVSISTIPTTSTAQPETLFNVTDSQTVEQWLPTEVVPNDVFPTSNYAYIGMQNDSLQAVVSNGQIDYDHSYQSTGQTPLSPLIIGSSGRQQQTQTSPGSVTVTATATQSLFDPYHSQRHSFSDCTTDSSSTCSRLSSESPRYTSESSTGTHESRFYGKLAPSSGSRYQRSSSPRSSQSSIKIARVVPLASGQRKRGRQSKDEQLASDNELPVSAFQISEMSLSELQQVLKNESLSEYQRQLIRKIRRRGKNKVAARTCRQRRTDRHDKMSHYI

CCOc1ccc(Br)cc1S(=O)(=O)NC(=O)c1ccccc1
EC50 [1]: > 300 µM (not active)
EC50 [2]: > 300 µM (not active)

CCCCc1ccc(NS(=O)(=O)c2c(C)n(C)c(=O)n(C)c2=O)cc1
EC50 [3]: > 260 µM (inactive)

CC1(O)C(=O)C=C2C=C(C3CC3)OC=C2C1=O (stereo unspecified)
EC50 [1]: 41.3 µM (active)
EC50 [2]: 17.8 µM (active)

CCOc1ccc(-c2nc(N)ncc2Oc2cccc(OC)c2)c(O)c1
EC50 [4]: > 120 µM (not active)
EC50 [5]: 16.4 µM (active)
EC50 [6]: > 60 µM (not active)
IC50 [7]: > 47.1 µM (inactive)
EC50 [8]: > 53 µM (inactive)
IC50 (Protein skinhead-1): > 100 µM (inactive)

Cc1nc2nc(C)c(CCC(=O)N3CCN(c4ccccc4)CC3)c(C)n2n1
IC50 (Protein skinhead-1): > 100 µM (inactive)

CCCCCCC1CCC(C(=O)NC(CCSC)C(=O)NC(C(=O)OC)C(C)C)CC1 (stereo unspecified)
EC50 [3]: > 260 µM (inactive)

N#CCCn1cc(C=C(C#N)C#N)c(-c2ccc(-c3ccccc3)cc2)n1
EC50 [3]: 7.51 µM (active)

COC(=O)c1ccc(C#Cc2ccccc2)o1
IC50 (Protein skinhead-1): > 100 µM (inactive)

CN1CCN(C(=O)c2ccccc2N(Cc2ccccc2)S(C)(=O)=O)CC1
IC50 (Protein skinhead-1): > 100 µM (inactive)

COc1cc(CC(=O)N(c2ccccc2)c2nc(C)cs2)cc(OC)c1OC
EC50 [3]: > 260 µM (inactive)

O=[N+]([O-])c1ccc(Nc2ccc(Cl)cc2)nc1
IC50 (Protein skinhead-1): > 100 µM (inactive)

O=C(CC1Sc2ccccc2NC1=O)NNc1cc(Cl)ccc1Cl (stereo unspecified)
IC50 (Protein skinhead-1): > 100 µM (inactive)

Cc1cc(C(=O)N/N=C/c2ccc(-c3cccc(Cl)c3Cl)o2)[nH]n1
EC50 [1]: 28.3 µM (active)
EC50 [2]: 10.2 µM (active)

COc1ccc(/C=N/NC(=O)c2ccccc2NC(=O)c2ccco2)c(OC)c1
IC50 [7]: > 47.1 µM (inactive)
EC50 [8]: > 53 µM (inactive)

COc1ccc(/C=N/OCC(=O)N=Nc2c(O)[nH]c3ccc(Br)cc23)cc1
IC50 [7]: 5.15 µM (active)
EC50 [8]: > 53 µM (inactive)

O=c1/c(=C/c2ccccc2)sc2nnc(-c3cccs3)n12
EC50 [3]: 23.3 µM (active)

Source: ChEMBL document CHEMBL1201862, “PubChem BioAssay data set” (2004)
